The source of these data is patent publication US20240082221A1, “COMPOSITIONS AND METHODS FOR THE IDENTIFICATION OF COMPOUNDS THAT PROTECT AGAINST LIPOFUSCIN CYTOTOXICITY” (priority 2021, published 2024).

Molecules are shown by their SMILES.

The test system of one experiment is IRE1α. Nature of the experiment: qPCR of spliced XBP1 (XBP1s) as readout of IRE1α activity in ARPE-19. Type of experiment: cell-based, Human. Conditions: ARPE-19, qPCR. The source says: (§1) RNA isolation and quantitative PCR. Total RNA was extracted from cultured cells or mouse eye RPE layer using the RNeasy Mini kit (QIAGEN). The total RNA was digested with deoxyribonuclease I to prevent amplification of genomic DNA. The total RNA then was reversed transcribed using High-Capacity cDNA Reverse Transcription Kit (ThermoFisher Scientific, cat.no. 4368814) and analyzed gene expression using SYBR Green Master Mix (ThermoFisher Scientific, cat.no. 4472908) in an Applied Biosystems StepOne real time PCR machine. GAPDH was used as a reference gene. […] After genes were amplified by real time PCR, some of the PCR products were separated by 2.5% agarose gel.

The next experiment relates to cathepsin D. Type of experiment: cell-based. The source says:
Next, A2E buildups were imaged using a combination of DIC and fluorescence: A2E appeared as granules with well-defined edges, both within cells or after drying over a coverslip (FIGS. 14D and 14E). Next, the ability of the suspected A2E crystals to damage lysosomal membranes was investigated. A recently developed galectin-3 puncta assay for early detection of lysosomal membrane permeabilization (LMP) was used. Briefly, cytosolic galectin-3 rapidly binds to the glycocalyx in the luminal face of lysosomal membranes as they become leaky, which is easily detectable with anti-galectin high-affinity antibodies. L-Leucyl-L-Leucine methyl ester (LLO) a lysosomotropic peptide that causes LMP was used as positive control of puncta formation (FIG. 14E). […] LMP was confirmed by showing the […] of cathepsin D, as surrogate of lysosomal enzymes. […] Also, very remarkable was the observation that the same unique pattern of protection with arimoclomol and Nec-7 but not Nec-1 was observable for LLO (FIG. 14K), consistent with the idea that necroptosis by A2E is being caused by LMP.

The next experiment relates to XBP1s. Briefly: qPCR of XBP1 splicing in hfRPE. The class given is cell-based, Human.
Description: as §1
In general terms: Real-time PCR tracks product formation cycle by cycle.

Experiment [1] relates to unfolded protein response (UPR) pathway. Nature of the experiment: RNAseq / Ingenuity Pathway Analysis of cells with dark LF cytotoxicity. The class given is cell-based, Human. Conditions: cells with dark LF cytotoxicity vs cells rescued by treatment. As to the method:
RNAseq. Cultured ARPE19 cells were treated with or without 15 uM A2E for 24 hours, then cells were harvested and total RNA extracted. […]. RNAseq profiles were analyzed further with Ingenuity Pathway Analysis (IPA, Qiagen).
To investigate the cellular processes leading to necroptosis, Ingenuity Pathway Analysis (IPA) was used to compare the transcriptomes of cells suffering of dark LF cytotoxicity with cells rescued by Nec7 treatment. […] The UPR is a conserved transcriptional response to the aberrant accumulation of misfolded proteins or lipids in the endoplasmic reticulum. UPR is elicited by three ER-resident sensors: PERK, IRE1α and […]. […] To evaluate the impact of UPR downregulation, the list of UPR transcripts inhibited by Nec7 was extracted and a new IPA analysis was performed for the downstream consequences (FIG. 5D).

The test system of another experiment is ARPE19 cells. Briefly: ATR-induced light-independent cell death. Type of experiment: cell-based, Human. Particulars: pre-treatment with 33 μM. The source says:
Overall, these indicate that necroptosis is a specific readout of ocular lipofuscin toxicity, easily distinguishable from the poisonous effects of ATR.

For the next experiment, the system named is CHOP. Nature of the experiment: Western blot of CHOP upregulation (UPR, downstream of PERK). The class given is cell-based, Human. Particulars: cells incubated with A2E. The protocol:
Immunoblotting. Total cell lysates were extracted using RIPA lysis buffer (50 mM TrisHCl, Ph 8.0, 150 mM NaCl, 1% NP40, 0.5% Sodium Deoxycholate, 0.1% SDS, protease-phosphatase inhibitor) after the incubation of the specific sample group in a 48 well plate. Sonication or syringing (20 times) was done followed by centrifugation at 12,000×g for 10 mins and the supernatant was collected and stored in −80° C. Proten concentration from homogenates were assessed by Pierce Rapid Gold BCA protein assay kit (ThermoFisher Scientific, cat.no. A53225). Then 30 μg of protein was analyzed by standard SDS-PAGE gel. Samples were mixed 4:1 (v:v) with Nupage loading buffer with or without 8% 0-mercaptoethanol and heated for 10 min at 72° C. SDS-PAGE was done using 4-12% Nupage gel and buffer (Life, NP0335BOX). Next, SDS-PAGE gel was transferred to nitrocellulose membrane (Whatman, PROTAN BA83) overnight at 20V. The following day, 5% milk in TBS was used for 2 h blocking the membrane and then primary antibody was added in TBST (TBS, 0.1% Tween-20) for overnight at 4° C. Next day membranes were washed and incubated for 2 hours at room temperature with HRP conjugated secondary antibody (cat #G21234, Invitrogen) at 1:10,000 dilution. After 3 more washed membranes were probed with enhanced chemiluminescence (ECL) reagent and detected using an X-ray films for chemiluminescence image (GE healthcare, RPN2106). Scanning/imaging and quantitation of the image was done using silverfast 8 application software and Fiji Image J. Antibodies for Western blotting were list in FIG. 10.

Turning to `N=C1S/C(=C\c2cn[nH]c2-c2ccc(F)cc2)C(=O)N1c1nccs1` [Nec7, Necrostatin 7], in the experiment with IRE1α, the “effect on LF-induced XBP1 splicing (XBP1s, IRE1α activity)” value was “completely abrogated”. For the same compound, the “effect on loss of cathepsin-D activity caused by A2E” value in the experiment with cathepsin D is “prevented”. Besides, the “effect on LF-induced XBP1 splicing in hfRPE” value with XBP1s is “prevention”. For the same compound, the “transcriptome pathway variation induced by treatment (IPA)” value in experiment [1] was “inhibition of the unfolded protein response (UPR)”. In the experiment with ARPE19 cells, the “effect on cell death by ATR” value was “did not block cell death”. Also, in the experiment on CHOP, the “effect on LF-induced upregulation of CHOP / UPR” value was “completely abrogated”.
